# Measurements from ChEMBL document CHEMBL5537201, “Discovery of Unique Bis-Substituted Aromatic Amide Derivatives as Novel Highly Potent Antibiotics for Combating Methicillin-Resistant Staphylococcus aureus (MRSA)” (J Med Chem, 2024).
# Columns and labels:
# Staphylococcus aureus [1] = experiment: Antimicrobial activity against Staphylococcus aureus N315 assessed as reduction in bacterial growth incubated for 24 hrs by two-fold broth dilution method; assay type: functional
# Staphylococcus aureus [2] = experiment: Antimicrobial activity against Staphylococcus aureus ATCC6538 assessed as reduction in bacterial growth incubated for 24 hrs by two-fold broth dilution method; assay type: functional
SMILES,MIC (Staphylococcus aureus [1]) [µg/mL],MIC (Staphylococcus aureus [2]) [µg/mL]
O=C(CCC(F)(F)F)N(Cc1cc2ccccc2s1)c1c(O)cccc1-c1ccccc1,6,2
O=C(CCC(F)(F)F)N(Cc1cc2ccccc2s1)c1cc(-c2ccncc2)ccc1O,> 16,> 16
CC(C)(C)c1ccc(-c2ccc(O)c(N(Cc3cc4ccccc4s3)C(=O)CCC(F)(F)F)c2)cc1,1,2
CCCCC(=O)N(Cc1cc(C(C)(C)C)cc(C(C)(C)C)c1)c1ccc2ccccc2c1O,62.5,62.5
CCCCC(=O)N(Cc1ccc2c(c1)OCCO2)c1ccc2ccccc2c1O,62.5,31.2
O=C(CCC(F)(F)F)N(Cc1cc2ccccc2s1)c1cc(-c2ccc(Br)cc2)ccc1O,3,2
O=C(CCC(F)(F)F)N(Cc1cc2ccccc2s1)c1ccc(-c2ccccc2)c(O)c1,> 16,2
O=C(CCC(F)(F)F)N(Cc1cc2ccccc2s1)c1cc(-c2cncnc2)ccc1O,> 16,> 16
O=C(CCC(F)(F)F)N(Cc1cc2ccccc2s1)c1cc(-c2ccccc2C(F)(F)F)ccc1O,> 16,> 16
CCCCC(=O)N(Cc1ccc2c(c1)OCO2)c1ccc2ccccc2c1O,31.2,31.2
CCCCC(=O)N(Cc1ccc2c(c1)CCO2)c1ccc2ccccc2c1O,62.5,62.5
COc1cc(-c2ccccc2)ccc1N(Cc1cc2ccccc2s1)C(=O)CCC(F)(F)F,> 16,> 16

# More lines, now with the values ahead:
MIC (Staphylococcus aureus [1]) [µg/mL],MIC (Staphylococcus aureus [2]) [µg/mL],SMILES
62.5,31.2,CCCCC(=O)N(Cc1cc2ccccc2o1)c1ccc2ccccc2c1O
> 16,> 16,O=C(CCC(F)(F)F)N(Cc1cc2ccccc2s1)c1cccc(-c2ccccc2)c1O
125,62.5,CCCCC(=O)N(Cc1cc2ccccc2c2ccccc12)c1ccc2ccccc2c1O
> 250,> 250,C=CCCC(=O)N(Cc1cc2ccccc2s1)c1ccc2ccccc2c1O
> 250,> 250,CCCCCC(=O)N(Cc1cc2ccccc2s1)c1ccc2ccccc2c1O
7.8,7.8,C=CC(=O)N(Cc1cc2ccccc2s1)c1ccc2ccccc2c1O
15.6,15.6,CCCCC(=O)N(Cc1cc2ccccc2s1)c1ccc2ccccc2c1O
> 250,> 250,CCCC(=O)N(Cc1cc2ccccc2s1)c1ccc2ccccc2c1O
31.2,7.8,O=C(CCCCl)N(Cc1cc2ccccc2s1)c1ccc2ccccc2c1O
62.5,31.2,CCCCC(=O)N(Cc1ccc2sccc2c1)c1ccc2ccccc2c1O
3,2,O=C(CCC(F)(F)F)N(Cc1cc2ccccc2s1)c1ccc(-c2ccccc2)cc1O
2,2,O=C(CCC(F)(F)F)N(Cc1cc2ccccc2s1)c1ccc2ccccc2c1O
125,62.5,CCCCC(=O)N(Cc1ccc2oc3ccccc3c2c1)c1ccc2ccccc2c1O
